Legend:
[1] = tested on: women with chronic pelvic pain; experiment: GaPP2 trial secondary analysis: gabapentin analgesic (pain) response, worst and average pain on numerical rating scale; format: in vivo, human; conditions: for Average pain (NRS), End of study: mean; for Average pain (NRS), End of study / Worst pain (NRS), End of study: numerical rating scale 1-10; for Worst pain (NRS), End of study: median
Description: (§1) This study is a planned secondary analysis of the GaPP2 trial, a UK-based multicentre, randomised, placebo-controlled trial of gabapentin versus placebo in women with chronic pelvic pain. Trial protocol including ethical approval and exclusion and inclusion criteria are published in full elsewhere. (17) All participants were women aged 18-50 years of age, were using or willing to use contraception to avoid pregnancy and had no obvious pelvic pathology at laparoscopy which must have taken place at least 2 weeks and less than 36 months prior to consent. Participants were randomly assigned to gabapentin (titrated to maximum dose 2700 mg daily) or placebo for 16 weeks. At inclusion to the trial, participants were asked to provide a saliva sample for inclusion in this study.
(§2) Cases were categorised into two phenotypes assessing the analgesic response to gabapentin and the degree of intolerance (side-effect burden). Gabapentin analgesic response was defined categorically using the coprimary outcomes of the GaPP2 trial: worst and average pain. Gabapentin ‘responders’ were defined as having reported a ≥30% reduction in worst and/or average pain scores on a numerical rating scale (1-10) after 12 weeks of gabapentin exposure. Gabapentin intolerance was also categorised categorically using a cut-off of ≥3 side-effects reported during the study period. Cases were categorised into ≥3 side-effects and <3 side-effects.

[2] = tested on: women with chronic pelvic pain; experiment: GaPP2 trial secondary analysis: gabapentin intolerance (side-effect burden); format: in vivo, human; conditions: side-effects reported during the study period; genotyped participants
Description: as §1
as §2, with “Cases were categorised into ≥3 side-effects and <3 side-effects.” left out

[3] = tested on: women with chronic pelvic pain; experiment: Mechanistic fMRI study: brain response to abdominal punctate stimuli before and after 12 weeks of treatment; format: in vivo, human; conditions: rs4442490 TT responders (n = 2) compared with TG/GG non-responders (n = 5); brain regions of Table 4
Description: Within the sample taking part in the gabapentin RCT, a small number also took part in a mechanistic fMRI study, undergoing MRI brain scans before and after 12 weeks of treatment. […] Punctate task fMRI pre-processing is described in the supplementary materials. For those for whom both genetic and imaging data was available, the gabapentin pre- and post-treatment scans were compared. The first-level contrast of post-treatment>pre-treatment punctate vs rest was taken into a random effects analysis comparing SNP variants, with clusters achieving a whole-brain, FWE-corrected significance of p<0.05 being reported.

[4] = tested on: women with chronic pelvic pain; conditions: GaPP2 trial, women with CPP (reference 7); cited from earlier work
[5] = tested on: women with chronic pelvic pain; conditions: embedded mechanistic study of GaPP2 (reference 8); cited from earlier work
[6] = tested on: women with chronic pelvic pain; conditions: GaPP2 trial, women with CPP (reference 7); cited from earlier work; remark: listed apart in the source
[7] = Pain non-responder group (n = 46)
[8] = after 12 weeks of gabapentin exposure, genotyped participants

## NCC1(CC(=O)O)CCCCC1 [gabapentin]
[1]; [7]
  Average pain (NRS), End of study: 5.8
  Worst pain (NRS), End of study: 9
[1]; Pain responder group (n = 31), gabapentin titrated to maximum 2700 mg daily
  Average pain (NRS), End of study: 2.5
[1]; Pain responder group (n = 31)
  Worst pain (NRS), End of study: 6
[1]; [8]
  number of pain non-responders: (n = 46)
  number of pain responders (≥30% reduction in worst and/or average pain scores): (n = 31)
[1]; subjects in the gabapentin pain responder group
  average reduction in average pain: 47%
[2]
  number of participants with <3 side-effects: <3 side-effects (n = 23)
  number of participants with ≥3 side-effects: ≥3 side-effects (n = 53)
[3]
  fMRI punctate activation after treatment versus before: decrease in punctate activation
[4]
  improvement of worst or average pain scores versus placebo: not superior to placebo
[5]
  effect on brain region in response to abdominal punctate stimuli (functional MRI): appeared to exert an effect on the anterior cingulate cortex
[6]
  side-effects versus placebo: associated with more side-effects

From patent publication US20260152794A1, “EFFICACY OF CHRONIC PELVIC PAIN TREATMENT” (THE UNIVERSITY COURT OF THE UNIVERSITY OF EDINBURGH, priority 2022, published 2026)
